Experimental data: patent USRE38132E1, “Phenylpyrrolidines, phenylimidazolidines,3-phenyl-1,3-oxizolidines and 3-phenyl-1,3-thiazolidines and their use in the treatment of inflammatory disease” (Boehringer Ingelheim Pharmaceuticals, Inc., priority 1997, dated 2003)
Like-named read-outs stand apart in the source and are kept apart here.

What was measured:
[1] = biological target: T1, interaction of ICAM-1 with the Leukointegrin CD18/CD11a (LFA-1) (Homo sapiens, UniProt P05107+P20701); assay: Assay to determine inhibition of LFA-1 binding to ICAM-1 (immunopurified LFA-1 on plate-bound sICAM-1, ELISA readout)
T1 construct: endogenous in cells; sICAM-1: made in house, secreted from transfected CHO DUX cells

[2] = system: SKW3 cells
[3] = system: cell bound fibronectin receptor (VLA4) with fibronectin, SKW3 cells; assay: Inhibition of SKW3 cell binding to fibronectin (selectivity counter-assay); assay type: cell-based, human
Source text: (§1) Assay to Determine Inhibition of SKW3 cell binding to ICAM-1 vs. Binding to Fibronectin
(§2) This assay is used to test the selective ability of a test compound to antagonize the interaction of a cell bound form of LFA-1 with ICAM-1. The assay uses a human T cell line, SKW3 cells which express CD18, CD11a and other integrins not related to CD18, CD11a and which can be “activated” by phorbol esters. Phorbol esters enhance the affinity of CD18, CD11a for ICAM-1.
(§3) This same lymphocyte line, SKW3, also adheres to fibronectin in the presence of phorbol esters. This adhesion is mediated by membrane proteins independent of the LFA-1/ICAM-1 interaction. The SKW3 cells express another integrin, VLA4, which is the receptor for fibronectin. Therefore, as a preliminary indication of the selectivity of a test compounds to interfere with Leukointegrin/CAM interactions but not other integrin-ligand binding events, a compound can be tested for its ability to antagonize cell bound fibronectin receptor in its interaction with purified fibronectin. Compounds that inhibit this fibronectin adhesion are not specific antagonists of the CD18, CD11a/ICAM-1 binding.
(§4) Description of Assay Protocol:
(§5) Ninety-six well plates are coated with either sICAM-1(40 μg/mL) or fibronectin (100 μg/mL) in Diluting buffer for 1 h at room temperature. Added to the wells are 100 μL of the appropriately diluted test compound or 100 μL of RPMI with 15% fetal bovine serum as a control. SKW3 cells, which express CD18, CD11a and VLA4 (Dustin, M.; et al., J. Exp. Med. 1987, 165, 672-692) are washed and suspended to a concentration of 10^6 cells/mL in RPMI with 15% fetal bovine serum. Immediately before adding the cells to the wells, cells are stimulated with the phorbol ester 12-myristate 13-acetate (PMA) for a final concentration of […]. 100 μL of cells are then added to the wells resulting in a final concentration of […]. The plates are incubated for 2 h at 37° C. Unbound or loosely bound cells are gently washed away with RPMI.
(§6) Data are reported as the concentration or concentration range (in μM) at which 50% of binding is inhibited.

[4] = system: cell bound form of LFA-1 (CD18, CD11a) with ICAM-1, SKW3 cells; assay: Inhibition of SKW3 cell binding to ICAM-1 (PMA-stimulated); assay type: cell-based, human; details: Homo sapiens, read-out: Assay to Detect SKW3 Cells Binding to ICAM IC50
Source text: as §1, §2, §3, §4, §5, §6

[5] = values marked e approximated from incomplete dose-response curve
[6] = values marked c: no inhibition observed up to highest dose

T1 sequence (P20701 26-1170): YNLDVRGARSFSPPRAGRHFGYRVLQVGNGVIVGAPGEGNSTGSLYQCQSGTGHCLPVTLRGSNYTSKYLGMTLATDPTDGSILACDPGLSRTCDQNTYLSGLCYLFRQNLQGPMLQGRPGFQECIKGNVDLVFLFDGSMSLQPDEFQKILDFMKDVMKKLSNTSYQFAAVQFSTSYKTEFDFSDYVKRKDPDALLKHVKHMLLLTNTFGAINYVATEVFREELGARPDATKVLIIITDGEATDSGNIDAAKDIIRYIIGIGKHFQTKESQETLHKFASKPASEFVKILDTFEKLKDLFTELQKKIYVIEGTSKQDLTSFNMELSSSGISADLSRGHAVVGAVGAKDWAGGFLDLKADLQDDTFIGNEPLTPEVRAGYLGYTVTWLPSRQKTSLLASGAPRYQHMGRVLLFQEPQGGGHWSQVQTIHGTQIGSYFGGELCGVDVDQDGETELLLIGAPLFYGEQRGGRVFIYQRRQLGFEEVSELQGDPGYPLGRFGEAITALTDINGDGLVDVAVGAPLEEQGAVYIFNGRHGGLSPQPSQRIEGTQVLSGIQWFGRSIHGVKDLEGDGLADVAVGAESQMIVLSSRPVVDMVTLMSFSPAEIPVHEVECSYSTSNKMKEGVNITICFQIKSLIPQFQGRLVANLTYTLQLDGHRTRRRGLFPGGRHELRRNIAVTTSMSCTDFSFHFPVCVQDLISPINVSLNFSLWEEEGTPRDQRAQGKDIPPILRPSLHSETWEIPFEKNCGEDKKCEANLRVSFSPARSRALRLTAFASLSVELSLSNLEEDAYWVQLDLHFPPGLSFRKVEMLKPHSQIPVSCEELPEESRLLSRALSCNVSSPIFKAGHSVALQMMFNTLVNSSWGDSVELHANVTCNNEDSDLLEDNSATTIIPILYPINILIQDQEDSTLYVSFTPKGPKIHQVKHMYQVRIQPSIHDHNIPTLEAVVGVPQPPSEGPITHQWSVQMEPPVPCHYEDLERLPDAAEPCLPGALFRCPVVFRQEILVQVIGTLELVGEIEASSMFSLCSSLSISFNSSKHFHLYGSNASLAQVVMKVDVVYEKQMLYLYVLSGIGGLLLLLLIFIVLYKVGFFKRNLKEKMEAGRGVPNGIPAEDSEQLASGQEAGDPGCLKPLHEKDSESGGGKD
T1 sequence (P05107 23-769): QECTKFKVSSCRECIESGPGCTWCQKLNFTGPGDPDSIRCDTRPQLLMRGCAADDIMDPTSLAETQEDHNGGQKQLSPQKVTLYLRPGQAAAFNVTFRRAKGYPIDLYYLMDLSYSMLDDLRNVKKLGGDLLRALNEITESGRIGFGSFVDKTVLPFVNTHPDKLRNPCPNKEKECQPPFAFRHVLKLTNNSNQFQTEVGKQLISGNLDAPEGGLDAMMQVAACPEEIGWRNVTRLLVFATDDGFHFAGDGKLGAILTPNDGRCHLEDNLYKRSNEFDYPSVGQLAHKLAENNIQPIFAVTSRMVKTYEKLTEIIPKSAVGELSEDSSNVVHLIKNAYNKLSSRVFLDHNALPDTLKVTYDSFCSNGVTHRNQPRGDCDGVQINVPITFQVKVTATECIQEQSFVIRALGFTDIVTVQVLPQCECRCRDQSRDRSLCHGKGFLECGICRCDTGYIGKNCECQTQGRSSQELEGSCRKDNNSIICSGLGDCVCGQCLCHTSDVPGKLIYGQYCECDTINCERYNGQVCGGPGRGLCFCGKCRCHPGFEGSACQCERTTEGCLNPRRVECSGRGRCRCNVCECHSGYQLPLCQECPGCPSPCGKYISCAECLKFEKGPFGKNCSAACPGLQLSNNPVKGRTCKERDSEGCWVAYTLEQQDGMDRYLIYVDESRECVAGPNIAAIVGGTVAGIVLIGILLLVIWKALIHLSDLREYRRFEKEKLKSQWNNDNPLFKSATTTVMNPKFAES

Kd [1, 5] [nM]	SMILES	further results
	C[C@@H](c1ccccc1)[C@@]1(C)C(=O)N(c2cc(Cl)cc(Cl)c2)C(=O)N1C [Example 270]	Kd [1]: 650 nM; Cellular Toxicity Assay MTT LD50 [2]: 250 to 500 µM
	CCN1C(=O)N(c2cc(Cl)cc(Cl)c2)C(=O)[C@]1(C)Cc1ccc(Br)cc1 [Example 275]	Kd [1]: 2000 nM
	CC1(Cc2ccc(-c3cc4ccccc4o3)cc2)NC(=O)N(c2cc(Cl)cc(Cl)c2)C1=O (centres unmarked) [Example 209]	Kd [1]: 940 nM
240	C[C@@]1(Cc2ccc(Br)cc2)C(=O)N(c2cc(Cl)cc(Cl)c2)C(=O)N1Cc1ccc(C#N)cc1 [Example 115]	
260	CN1C(=O)N(c2cc(Cl)cc(Cl)c2)C(=O)C1Cc1ccc(C(=O)c2ccccc2)cc1 (centres unmarked) [Example 95]	
300	CC1(Cc2ccc(-c3cccs3)cc2)NC(=O)N(c2cc(Cl)cc(Cl)c2)C1=O (centres unmarked) [Example 195]	
3080	CC(N)(Cc1c[nH]c2ccccc12)C(=O)O (centres unmarked) [Example 25]	
350	Cc1ccc(CC2(C)C(=O)N(c3cc(Cl)cc(Cl)c3)C(=O)N2C)cc1 (centres unmarked) [Example 144]	
1480	CCC1(Cc2ccccc2)NC(=O)N(c2cc(Cl)cc(Cl)c2)C1=O (centres unmarked) [Example 30]	
430	CC1(Cc2ccc(C(F)(F)F)cc2)NC(=O)N(c2cc(Cl)cc(Cl)c2)C1=O (centres unmarked) [Example 51]	
	C[C@@]1(Cc2ccc(Br)cc2)C(=O)N(c2cc(Cl)cc(Cl)c2)C(=O)N1COC(=O)C(CO)CO [Example 238]	Kd [1]: 80 nM
	C[C@]1(Cc2ccc(Br)cc2)CC(=O)N(c2cc(Cl)cc(Cl)c2)C1=O [Example 277]	Kd [1]: 70 nM
	CN1C(=O)N(c2cc(Cl)cc(Cl)c2)C(=O)[C@]1(C)Cc1ccc(Br)cc1 [Example 272]	IC50 ([4]; SKW3): 50 to 100 µM; Assay to Detect SKW3 Cells Binding to FIBRONECTIN IC50 ([3]; No inh = no inhibition observed up to highest dose, exact quantification not always possible due to intrinsic toxicity): No inh^c; Cellular Toxicity Assay MTT LD50 [2]: 250 to 500 µM
1750	CC1(Cc2ccccc2Br)NC(=O)N(c2cc(Cl)cc(Cl)c2)C1=O (centres unmarked) [Example 48]	
3840	O=C1NC(C(O)c2ccccc2)C(=O)N1c1cc(Cl)cc(Cl)c1 (centres unmarked) [Example 179]	
690	CN1C(=O)N(c2cc(Cl)cc(Cl)c2)C(=O)C1(C)Cc1ccccc1Cl (centres unmarked) [Example 156]	
940	CC1(Cc2ccccc2)C(=O)N(c2cc(Cl)cc(Cl)c2)C(=O)N1C1CCCCC1 (centres unmarked) [Example 33]	
500	Cc1ccccc1CC1(C)C(=O)N(c2cc(Cl)cc(Cl)c2)C(=O)N1C (centres unmarked) [Example 148]	
4560	CN1C(=O)N(c2cc(Cl)cc(Cl)c2)C(=O)C1(C)Cc1ccc2ccccc2n1 (centres unmarked) [Example 161]	
600	CN1C(=O)N(c2cc(Cl)cc(Cl)c2)C(=O)C1(C)Cc1c(F)c(F)c(F)c(F)c1F (centres unmarked) [Example 167]	
1150	Cc1cccc(C)c1CC1(C)NC(=O)N(c2cc(Cl)cc(Cl)c2)C1=O (centres unmarked) [Example 38]	
	CC1(Cc2ccc(-c3cccc(F)c3)cc2)NC(=O)N(c2cc(Cl)cc(Cl)c2)C1=O (centres unmarked) [Example 212]	Kd [1]: 70 nM
430	Cc1ccccc1CC1(C)C(=O)N(c2cc(Cl)cc(Cl)c2)C(=O)N1C (centres unmarked) [Example 142]	
390	COc1cccc(CN2C(=O)N(c3cc(Cl)cc(Cl)c3)C(=O)[C@@]2(C)Cc2ccc(Br)cc2)n1 [Example 112]	
520	CN(C)CCN1C(=O)N(c2cc(Cl)cc(Cl)c2)C(=O)C1(C)Cc1ccc(Br)cc1 (centres unmarked) [Example 99]	

Kd [1, 5] [nM]	SMILES	further results
680	CC1(Cc2ccc(-c3ccc(Cl)cc3Cl)cc2)NC(=O)N(c2cc(Cl)cc(Cl)c2)C1=O (centres unmarked) [Example 201]	
1050	Cc1cc(C)cc(CC2(C)C(=O)N(c3cc(Cl)cc(Cl)c3)C(=O)N2C)c1 (centres unmarked) [Example 162]	
	C[C@@]1(Cc2ccc(Br)cc2)CC(=O)N(c2cc(Cl)cc(Cl)c2)C1=O [Example 278]	Kd [1]: 1090 nM
1070	COc1cccc(CC2(C)C(=O)N(c3cc(Cl)cc(Cl)c3)C(=O)N2C)c1 (centres unmarked) [Example 165]	
	CN1C(=O)N(c2cc(C(F)(F)F)cc(C(F)(F)F)c2)C(=O)[C@]1(C)Cc1ccccc1 [Example 268]	Kd [1]: 1590 nM; Cellular Toxicity Assay MTT LD50 [2]: 250 to 500 µM
1200	Cc1cccc(CC2(C)C(=O)N(c3cc(Cl)cc(Cl)c3)C(=O)N2C)c1 (centres unmarked) [Example 143]	
480	CC1(Cc2cccc(Oc3ccccc3)c2)NC(=O)N(c2cc(Cl)cc(Cl)c2)C1=O (centres unmarked) [Example 56]	
1890	O=C1NC(Cc2ccccc2)C(=O)N1c1cc(Cl)c(Cl)c(Cl)c1 (centres unmarked) [Example 70]	
1170	CN1C(=O)N(c2cc(Cl)cc(Cl)c2)C(=O)C1C(O)c1ccccc1 (centres unmarked) [Example 178]	
1110	CN1C(=O)N(c2cc(Cl)cc(Cl)c2)C(=O)[C@@]1(C)Cc1ccc(-c2ccc(C(=O)O)cc2)cc1 [Example 186]	
	CC1(Cc2ccccc2)C(=O)N(c2cc(Cl)cc(Cl)c2)C(=O)N1CCO (centres unmarked) [Example 218]	Kd [1]: 800 nM
~3000	CCCCOc1cc(CC2(C)NC(=O)N(c3cc(Cl)cc(Cl)c3)C2=O)nc(C(F)(F)F)c1 (centres unmarked) [Example 63]	
640	CN1C(=O)N(c2cc(Cl)cc(Cl)c2)C(=O)C1(C)Cc1ccc2c(c1)OCO2 (centres unmarked) [Example 160]	
120	CCN1C(=O)N(c2cc(Cl)cc(Cl)c2)C(=O)C1(C)Cc1ccc(Br)cc1 (centres unmarked) [Example 105]	
670	C[C@H]1C(=O)N(c2cc(Cl)cc(Cl)c2)C(=O)[C@]1(C)Cc1ccccc1 [Example 74]	
340	C[C@@H]1C(=O)N(c2cc(Cl)cc(Cl)c2)C(=O)[C@]1(C)Cc1ccc(Br)cc1 [Example 73]	
	CN1C(=O)N(c2cc(Cl)cc(Cl)c2)C(=O)C1(C)Cc1ccc(Br)cc1 (centres unmarked) [Example 138]	IC50 ([4]; SKW3, values marked c: no inhibition observed up to highest dose): 6 µM; Assay to Detect SKW3 Cells Binding to FIBRONECTIN IC50 [3, 6]: No inh^c; Cellular Toxicity Assay MTT LD50 [2]: 250 to 500 µM
	CC1(Cc2ccc(-c3ccc4ccccc4c3)cc2)NC(=O)N(c2cc(Cl)cc(Cl)c2)C1=O (centres unmarked) [Example 211]	Kd [1]: ~2000 nM
20	Cc1ccc(CC2(C)C(=O)N(c3cc(Cl)cc(Cl)c3)C(=O)N2C)cc1 (centres unmarked) [Example 170]	
270	COc1ccccc1-c1ccc(CC2(C)NC(=O)N(c3cc(Cl)cc(Cl)c3)C2=O)cc1 (centres unmarked) [Example 194]	
410	CN(C)CCN1C(=O)N(c2cc(Cl)cc(Cl)c2)C(=O)[C@@]1(C)Cc1ccc(Br)cc1 [Example 108]	
	CN1C(=O)N(c2cc(C(F)(F)F)cc(C(F)(F)F)c2)C(=O)[C@@]1(C)Cc1ccccc1 [Example 267]	Kd [1]: 400 nM; Cellular Toxicity Assay MTT LD50 [2]: 250 µM
190	Cc1ccccc1-c1ccc(CC2(C)NC(=O)N(c3cc(Cl)cc(Cl)c3)C2=O)cc1 (centres unmarked) [Example 197]	
810	COc1ccccc1CN1C(=O)N(c2cc(Cl)cc(Cl)c2)C(=O)[C@@]1(C)Cc1ccc(Br)cc1 [Example 126]	
360	CC1(Cc2ccc(OC(F)(F)F)cc2)NC(=O)N(c2cc(Cl)cc(Cl)c2)C1=O (centres unmarked) [Example 57]	

SMILES	Kd [1, 5] [nM]	further results
O=C1NC(c2ccccc2)C(=O)N1c1cc(Cl)cc(Cl)c1 (centres unmarked) [Example 6]	12800	Cellular Toxicity Assay MTT LD50 [2]: 250 to 500 µM
O=C1NC(CCc2ccccc2)C(=O)N1c1cc(Cl)cc(Cl)c1 (centres unmarked) [Example 12]	1750	Cellular Toxicity Assay MTT LD50 [2]: 125 to 250 µM
CC1(Cc2ccc(O)cc2)NC(=O)N(c2cc(Cl)cc(Cl)c2)C1=O (centres unmarked) [Example 9]	7870	Cellular Toxicity Assay MTT LD50 [2]: 250 to 500 µM
CC1(Cc2c[nH]c3ccccc23)NC(=O)N(c2cc(Cl)cc(Cl)c2)C1=O (centres unmarked) [Example 28]	2590	Assay to Detect SKW3 Cells Binding to FIBRONECTIN IC50 [3, 6]: No inh^c; Cellular Toxicity Assay MTT LD50 [2]: 100 to 200 µM
O=C1NC(Cc2ccccc2O)C(=O)N1c1cc(Cl)cc(Cl)c1 (centres unmarked) [Example 3]	3000	Cellular Toxicity Assay MTT LD50 [2]: 125 to 250 µM
O=C1NC(Cc2cccc(O)c2)C(=O)N1c1cc(Cl)cc(Cl)c1 (centres unmarked) [Example 4]	9320	Cellular Toxicity Assay MTT LD50 [2]: 250 to 500 µM
COc1ccc(CC2NC(=O)N(c3cc(Cl)cc(Cl)c3)C2=O)cc1 (centres unmarked) [Example 8]	2860	Cellular Toxicity Assay MTT LD50 [2]: 125 to 500 µM
O=C1NC(Cc2ccc(O)cc2)C(=O)N1c1cc(Cl)cc(Cl)c1 (centres unmarked) [Example 5]	15400	Cellular Toxicity Assay MTT LD50 [2]: 250 to 500 µM
